Where “and” joins values, the source holds several entries; their conditions need not be identical. Equal values may be shown once. Read-outs that look alike come from different tables or passages of the source.
Experiments:
[1] = target: T1, ABL2/ARG (Homo sapiens, UniProt P42684); test: HotSpot in vitro kinase radiometric assay; type: biochemical
T1 construct: purchased Reaction Biology (HotSpot contract assay)

[2] = target: T2, LYN B (Homo sapiens, UniProt P07948); test: HotSpot in vitro kinase radiometric assay; type: biochemical; settings: 10 μM, Fig 6C median ± standard deviation (n = 2)
T2 construct: purchased Reaction Biology (HotSpot contract assay)
Method in brief: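 Radiometric filter-binding read-out of 32P/33P-labelled phosphoproduct captured on filter paper. Reactions contain kinase, substrate, cofactors and ɣ-labelled ATP plus test compound; no modified substrate or coupling enzyme used.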

[3] = target: T3, 382 unique human kinases (Homo sapiens, UniProt P11802); test: biochemical; type: biochemical; settings: CDK4/cyclin D3, [ATP] 5 µM, compound 10 uM; for remaining activity at 10 µM: read-out: % Enzyme Activity (relative to DMSO controls)
T3 construct: purchased Reaction Biology (HotSpot contract assay)

[4] = target: T4, 382 unique human kinases (Homo sapiens, UniProt P24941); test: biochemical; type: biochemical; settings: 10 uM; for remaining activity at 10 µM: read-out: % Enzyme Activity (relative to DMSO controls)
T4 construct: purchased Reaction Biology (HotSpot contract assay)

[5] = target: T5, 382 unique human kinases (Homo sapiens, UniProt P50750); test: biochemical; type: biochemical; settings: CDK9/cyclin T1, 10 uM; for remaining activity at 10 µM: read-out: % Enzyme Activity (relative to DMSO controls)
T5 construct: purchased Reaction Biology (HotSpot contract assay)

[6] = target: T6, 382 unique human kinases (Homo sapiens, UniProt Q5S007, G2019S); test: biochemical; type: biochemical; settings: LRRK2 (G2019S), [ATP] 50 µM, compound 10 uM; for remaining activity at 10 µM: read-out: % Enzyme Activity (relative to DMSO controls)
T6 construct: purchased Reaction Biology (HotSpot contract assay)

[7] = test system: 382 unique human kinases; test: biochemical; type: biochemical; settings: for In vitro screening: kinases hit / kinases screened: Figure 3; for number of off-target kinases experimentally identified, In vitro binding (KinomeSCAN): cutoff of >85% inhibition at 10 μM, luminespib and ganetespib large kinome panel, others 16-kinase panel
[8] = test system: HSP90AB1; set-up: method as in ChEMBL23 (accessed: 23/08/2018); settings: average of reported values; ref ChEMBL23 (accessed: 23/08/2018); cited from earlier work
[9] = target: ABL1 (Homo sapiens, UniProt P00519); test: HotSpot in vitro kinase radiometric assay; type: biochemical; set-up: purchased Reaction Biology (HotSpot contract assay)
[10] = target: DDR1 (Homo sapiens, UniProt Q08345); test: HotSpot in vitro kinase radiometric assay; type: biochemical; set-up: purchased Reaction Biology (HotSpot contract assay)
[11] = target: T7, YES/YES1 (Homo sapiens, UniProt P07947); test: HotSpot in vitro kinase radiometric assay; type: biochemical; settings: read-out: % inhibition at 10 uM: YES; 10 μM; Fig 6C median ± standard deviation (n = 2)
T7 construct: purchased Reaction Biology (HotSpot contract assay)

[12] = target: T8, 382 unique human kinases (Homo sapiens, UniProt Q00534); test: biochemical; type: biochemical; settings: CDK6/cyclin D3, 10 uM
T8 construct: purchased Reaction Biology (HotSpot contract assay)

[13] = ABL2, single replicate curves, read-out: IC50
[14] = radiometric 10-point concentration-response, n = 3, read-out: in vitro biochemical IC50, ABL2
[15] = ABL1, single replicate curves, read-out: IC50
[16] = radiometric 10-point concentration-response, n = 3, read-out: in vitro biochemical IC50, ABL1
[17] = radiometric 10-point concentration-response, n = 3, read-out: in vitro biochemical IC50, DDR1
[18] = 10 μM, Fig 6C median ± standard deviation (n = 2)

T5 sequence (P50750 whole entry): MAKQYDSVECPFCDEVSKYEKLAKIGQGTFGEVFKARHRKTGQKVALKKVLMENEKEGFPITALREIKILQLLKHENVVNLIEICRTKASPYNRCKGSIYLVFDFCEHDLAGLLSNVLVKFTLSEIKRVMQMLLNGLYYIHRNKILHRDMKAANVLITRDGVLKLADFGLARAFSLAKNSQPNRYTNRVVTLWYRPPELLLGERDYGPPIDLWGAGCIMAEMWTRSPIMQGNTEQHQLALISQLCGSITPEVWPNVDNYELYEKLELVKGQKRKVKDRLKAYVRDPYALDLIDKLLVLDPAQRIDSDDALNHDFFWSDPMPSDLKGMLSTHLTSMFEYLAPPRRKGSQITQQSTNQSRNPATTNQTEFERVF
T1 sequence (P42684 whole entry): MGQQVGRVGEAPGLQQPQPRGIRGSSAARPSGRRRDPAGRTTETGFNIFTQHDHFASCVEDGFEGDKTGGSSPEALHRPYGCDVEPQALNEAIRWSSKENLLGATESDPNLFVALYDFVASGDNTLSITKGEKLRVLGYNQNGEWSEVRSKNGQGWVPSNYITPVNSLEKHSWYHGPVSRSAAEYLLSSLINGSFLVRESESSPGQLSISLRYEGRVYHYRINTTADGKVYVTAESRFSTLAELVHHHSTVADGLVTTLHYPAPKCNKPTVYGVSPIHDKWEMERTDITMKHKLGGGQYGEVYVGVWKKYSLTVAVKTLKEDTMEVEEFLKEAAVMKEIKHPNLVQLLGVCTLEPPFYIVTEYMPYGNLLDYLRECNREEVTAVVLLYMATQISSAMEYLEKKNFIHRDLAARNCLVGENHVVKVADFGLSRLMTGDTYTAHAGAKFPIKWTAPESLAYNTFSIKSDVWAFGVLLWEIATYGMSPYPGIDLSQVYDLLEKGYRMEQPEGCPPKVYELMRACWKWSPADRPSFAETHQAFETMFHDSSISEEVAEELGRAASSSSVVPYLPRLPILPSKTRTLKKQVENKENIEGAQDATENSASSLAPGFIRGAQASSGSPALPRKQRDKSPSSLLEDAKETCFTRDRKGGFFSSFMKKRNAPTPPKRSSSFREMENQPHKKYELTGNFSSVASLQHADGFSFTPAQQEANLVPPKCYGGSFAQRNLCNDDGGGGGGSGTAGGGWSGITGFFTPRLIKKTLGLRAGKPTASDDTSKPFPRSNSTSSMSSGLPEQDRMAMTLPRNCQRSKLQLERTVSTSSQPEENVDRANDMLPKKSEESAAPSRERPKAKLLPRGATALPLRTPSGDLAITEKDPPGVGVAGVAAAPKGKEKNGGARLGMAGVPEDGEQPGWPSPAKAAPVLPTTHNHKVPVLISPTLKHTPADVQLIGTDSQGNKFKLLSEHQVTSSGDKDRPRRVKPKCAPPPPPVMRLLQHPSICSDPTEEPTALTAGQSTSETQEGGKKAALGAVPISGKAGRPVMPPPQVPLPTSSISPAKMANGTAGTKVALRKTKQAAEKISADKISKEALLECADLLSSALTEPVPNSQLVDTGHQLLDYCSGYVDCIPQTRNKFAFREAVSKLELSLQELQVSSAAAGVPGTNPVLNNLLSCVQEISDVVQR
T3 sequence (P11802 whole entry): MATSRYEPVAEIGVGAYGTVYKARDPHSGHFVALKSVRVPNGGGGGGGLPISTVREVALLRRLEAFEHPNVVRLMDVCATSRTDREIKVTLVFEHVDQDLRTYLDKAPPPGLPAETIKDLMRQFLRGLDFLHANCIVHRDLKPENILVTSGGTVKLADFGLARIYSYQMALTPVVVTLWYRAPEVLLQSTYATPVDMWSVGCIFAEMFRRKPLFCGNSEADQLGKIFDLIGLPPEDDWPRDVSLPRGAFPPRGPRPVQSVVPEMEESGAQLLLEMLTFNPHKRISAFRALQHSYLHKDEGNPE
Sequence of ABL1 (P00519 whole entry): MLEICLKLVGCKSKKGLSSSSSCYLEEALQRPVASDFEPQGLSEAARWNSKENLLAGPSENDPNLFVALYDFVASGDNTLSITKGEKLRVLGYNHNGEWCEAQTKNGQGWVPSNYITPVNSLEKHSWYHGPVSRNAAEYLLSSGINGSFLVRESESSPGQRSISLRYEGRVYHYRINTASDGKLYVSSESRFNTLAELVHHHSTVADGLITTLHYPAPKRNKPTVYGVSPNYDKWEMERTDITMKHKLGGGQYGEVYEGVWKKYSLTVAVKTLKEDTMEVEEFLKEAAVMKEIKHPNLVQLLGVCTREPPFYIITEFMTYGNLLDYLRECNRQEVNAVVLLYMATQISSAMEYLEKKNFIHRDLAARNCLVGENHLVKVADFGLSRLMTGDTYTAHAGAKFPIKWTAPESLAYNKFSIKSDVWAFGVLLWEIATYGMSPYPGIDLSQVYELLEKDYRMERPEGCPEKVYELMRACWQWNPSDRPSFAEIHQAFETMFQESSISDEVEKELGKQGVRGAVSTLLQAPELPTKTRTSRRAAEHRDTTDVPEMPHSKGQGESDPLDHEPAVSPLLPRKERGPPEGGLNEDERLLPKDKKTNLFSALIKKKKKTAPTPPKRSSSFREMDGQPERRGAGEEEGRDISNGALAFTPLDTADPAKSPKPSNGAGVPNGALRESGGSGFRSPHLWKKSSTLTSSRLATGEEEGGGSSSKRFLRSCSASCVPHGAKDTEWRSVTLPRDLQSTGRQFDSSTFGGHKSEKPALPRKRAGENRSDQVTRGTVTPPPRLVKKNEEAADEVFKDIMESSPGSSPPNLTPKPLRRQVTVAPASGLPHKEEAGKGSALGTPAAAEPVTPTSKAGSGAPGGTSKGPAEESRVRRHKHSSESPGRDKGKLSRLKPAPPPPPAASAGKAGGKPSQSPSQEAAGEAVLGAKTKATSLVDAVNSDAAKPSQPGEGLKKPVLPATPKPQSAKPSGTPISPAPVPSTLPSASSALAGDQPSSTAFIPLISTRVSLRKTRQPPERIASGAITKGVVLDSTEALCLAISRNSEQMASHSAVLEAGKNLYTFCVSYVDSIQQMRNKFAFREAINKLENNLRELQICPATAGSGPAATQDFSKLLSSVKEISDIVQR
Sequence of DDR1 (Q08345 19-913): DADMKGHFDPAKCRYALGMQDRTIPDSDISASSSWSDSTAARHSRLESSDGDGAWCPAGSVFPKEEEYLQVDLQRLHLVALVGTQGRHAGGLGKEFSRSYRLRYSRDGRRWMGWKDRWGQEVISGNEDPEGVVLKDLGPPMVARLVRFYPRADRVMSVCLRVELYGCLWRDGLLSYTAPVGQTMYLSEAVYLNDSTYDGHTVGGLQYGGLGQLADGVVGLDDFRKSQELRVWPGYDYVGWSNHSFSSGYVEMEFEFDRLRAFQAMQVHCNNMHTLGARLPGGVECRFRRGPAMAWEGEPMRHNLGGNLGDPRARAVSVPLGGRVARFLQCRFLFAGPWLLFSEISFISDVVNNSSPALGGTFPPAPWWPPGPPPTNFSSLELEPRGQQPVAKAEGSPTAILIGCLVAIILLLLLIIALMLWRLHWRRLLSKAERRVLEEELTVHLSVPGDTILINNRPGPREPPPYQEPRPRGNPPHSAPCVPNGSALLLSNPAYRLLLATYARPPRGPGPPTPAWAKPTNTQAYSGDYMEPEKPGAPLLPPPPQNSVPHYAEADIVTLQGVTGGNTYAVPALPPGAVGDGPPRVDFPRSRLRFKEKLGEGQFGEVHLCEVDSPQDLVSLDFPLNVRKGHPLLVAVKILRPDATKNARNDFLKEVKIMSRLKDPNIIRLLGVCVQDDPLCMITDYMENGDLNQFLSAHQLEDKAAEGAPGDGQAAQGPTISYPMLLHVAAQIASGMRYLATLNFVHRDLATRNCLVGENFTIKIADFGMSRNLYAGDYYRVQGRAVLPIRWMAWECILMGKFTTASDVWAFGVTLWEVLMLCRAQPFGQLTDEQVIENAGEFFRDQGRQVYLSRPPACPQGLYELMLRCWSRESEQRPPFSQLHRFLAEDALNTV
T8 sequence (Q00534 whole entry): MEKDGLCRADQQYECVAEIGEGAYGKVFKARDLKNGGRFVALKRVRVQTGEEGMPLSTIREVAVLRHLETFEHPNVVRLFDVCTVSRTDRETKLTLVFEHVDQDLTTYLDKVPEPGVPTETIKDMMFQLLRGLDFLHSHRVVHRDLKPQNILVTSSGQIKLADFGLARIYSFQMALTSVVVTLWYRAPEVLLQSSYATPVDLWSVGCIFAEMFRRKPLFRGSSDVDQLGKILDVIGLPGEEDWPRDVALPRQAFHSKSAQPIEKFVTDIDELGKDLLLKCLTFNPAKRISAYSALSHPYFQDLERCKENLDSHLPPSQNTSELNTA
T2 sequence (P07948 1-491 isoform P07948-2): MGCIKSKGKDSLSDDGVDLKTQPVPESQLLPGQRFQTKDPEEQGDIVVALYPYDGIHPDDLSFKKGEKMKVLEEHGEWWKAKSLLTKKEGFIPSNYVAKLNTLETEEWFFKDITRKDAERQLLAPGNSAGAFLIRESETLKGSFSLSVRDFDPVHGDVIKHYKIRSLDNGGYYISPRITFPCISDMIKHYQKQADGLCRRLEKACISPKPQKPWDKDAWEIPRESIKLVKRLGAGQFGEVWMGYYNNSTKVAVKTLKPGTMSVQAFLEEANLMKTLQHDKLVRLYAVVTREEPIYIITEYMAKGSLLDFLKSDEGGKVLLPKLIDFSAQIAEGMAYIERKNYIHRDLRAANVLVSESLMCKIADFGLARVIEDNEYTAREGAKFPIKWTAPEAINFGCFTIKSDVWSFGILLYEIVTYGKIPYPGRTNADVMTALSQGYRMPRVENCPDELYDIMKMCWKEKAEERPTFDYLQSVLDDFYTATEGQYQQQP

## CC(C)c1cc(-c2n[nH]c(=O)n2-c2ccc3c(ccn3C)c2)c(O)cc1O [Ganetespib]
[1]; ABL2, single replicate curves
  HILLSLOPE: -0.77 and -0.90 and -0.92
[1]; [13]
  IC50: 174 nM and 230 nM and 240 nM
[1]; [14]
  IC50: 215 nM
[1]; read-out: % inhibition of ABL2 at 1 μM, 1 μM, secondary screening
  inhibition at 1 µM: > 85%
[2]
  % inhibition at 10 uM: LYN B: not inhibited
[3]
  remaining activity at 10 µM: 53.8%
[4]; CDK2/Cyclin A1
  remaining activity at 10 µM: 108%
[4]; CDK2/cyclin E
  remaining activity at 10 µM: 93.7%
[5]
  remaining activity at 10 µM: 100%
[6]
  remaining activity at 10 µM: 28.6%
[7]
  number of kinases with inhibition of catalytic activity below 1 μM: 4
  In vitro screening: kinases hit / kinases screened: 21/382
  number of off-target kinases experimentally identified, In vitro binding (KinomeSCAN): 21
[7]; 10 μM
  number of native kinases inhibited by more than 85% at 10 μM: 20
[8]
  pActivity, HSP90AB1: 8.3
[9]; ABL1, single replicate curves
  HILLSLOPE: -0.99 and -0.93 and -0.96
[9]; [15]
  IC50: 625 nM and 519 nM and 539 nM
[9]; [16]
  IC50: 561 nM
[9]; read-out: % inhibition of ABL1 at 1 μM, 1 μM, secondary screening
  inhibition at 1 µM: > 80%
[10]; DDR1, single replicate curves
  HILLSLOPE: -0.94 and -1.03 and -0.91
[10]; DDR1, single replicate curves, read-out: IC50
  IC50: 361 nM and 363 nM and 289 nM
[10]; [17]
  IC50: 338 nM
[10]; read-out: % inhibition of DDR1 at 1 μM, 1 μM, secondary screening
  inhibition at 1 µM: > 85%

## CCNC(=O)c1noc(-c2cc(C(C)C)c(O)cc2O)c1-c1ccc(CN2CCOCC2)cc1 [Luminespib]
[1]; [18]
  % inhibition at 10 uM: ABL2: 92 ± 0%
[1]; ABL2, single replicate curves
  HILLSLOPE: -2.11 and -2.06 and -1.92
[1]; [13]
  IC50: 4570 nM and 4330 nM and 4120 nM
[1]; [14]
  IC50: 4340 nM
[1]; read-out: % inhibition at 10 uM: ABL2, 10 μM, Fig 6C median ± standard deviation (n = 2)
  inhibition at 10 µM: > 85%
[2]; read-out: % inhibition at 10 uM: LYN B
  inhibition at 10 µM: 74 ± 1%
[11]
  inhibition at 10 µM: 49 ± 2%
[3]
  % Enzyme Activity (relative to DMSO controls): 101.56%
  remaining activity at 10 µM: 102%
[4]; CDK2/Cyclin A1
  % Enzyme Activity (relative to DMSO controls): 96.40%
  remaining activity at 10 µM: 97.4%
[4]; CDK2/cyclin E
  % Enzyme Activity (relative to DMSO controls): 98.18%
  remaining activity at 10 µM: 101%
[5]
  % Enzyme Activity (relative to DMSO controls): 103.10%
  remaining activity at 10 µM: 105%
[12]
  % Enzyme Activity (relative to DMSO controls): 112.00%
[12]; read-out: % Enzyme Activity (relative to DMSO controls)
  remaining activity at 10 µM: 113%
[6]
  % Enzyme Activity (relative to DMSO controls): 91.80%
  remaining activity at 10 µM: 93.5%
[7]; 10 μM
  number of kinase off-targets inhibited by more than 50% at 10 μM: 14
  number of native kinases inhibited by more than 85% at 10 μM: two
[7]; ALK (T1151-L1152insT), [ATP] 20 µM, compound 10 uM
  % Enzyme Activity (relative to DMSO controls): 108.18% and 107.06%
[7]; ALK-TPM3, [ATP] 15 µM, compound 10 uM
  % Enzyme Activity (relative to DMSO controls): 105.28% and 105.22%
[7]; BRAF (T599_V600insT), 10 uM
  % Enzyme Activity (relative to DMSO controls): 98.93% and 97.05%
[7]; BRAF-FAM131B (Fex2Bex9), 10 uM
  % Enzyme Activity (relative to DMSO controls): 111.02% and 110.19%
[7]; EGFR (d746-750/C797S), 10 uM
  % Enzyme Activity (relative to DMSO controls): 93.95% and 93.48%
[7]; ERBB2 (V777_G778insCG), 10 uM
  % Enzyme Activity (relative to DMSO controls): 103.65% and 102.78%
[7]; FGFR1OP-FGFR1, [ATP] 10 µM, compound 10 uM
  % Enzyme Activity (relative to DMSO controls): 103.05% and 103.02%
[7]; FLT3 (ITD), [ATP] 30 µM, compound 10 uM
  % Enzyme Activity (relative to DMSO controls): 91.11% and 89.12%
[7]
  In vitro screening: kinases hit / kinases screened: 2/382
  number of off-target kinases experimentally identified, In vitro binding (KinomeSCAN): 2
[7]; KSR1 (A635F), 10 uM
  % Enzyme Activity (relative to DMSO controls): 100.08% and 96.91%
[7]; LYN B, [ATP] 20 µM, compound 10 uM
  % Enzyme Activity (relative to DMSO controls): 26.10% and 25.22%
[7]; PKCb2, 10 uM
  % Enzyme Activity (relative to DMSO controls): 102.18% and 101.94%
[7]; ROS1-GOPC, [ATP] 15 µM, compound 10 uM
  % Enzyme Activity (relative to DMSO controls): 101.12% and 99.93%
[7]; TRKA-TFG (TRK-T3), [ATP] 20 µM, compound 10 uM
  % Enzyme Activity (relative to DMSO controls): 85.72% and 85.69%
[7]; TRKA-TPM3, [ATP] 50 µM, compound 10 uM
  % Enzyme Activity (relative to DMSO controls): 90.74% and 88.03%
[7]; TRKA-TPR, [ATP] 50 µM, compound 10 uM
  % Enzyme Activity (relative to DMSO controls): 90.04% and 89.94%
[7]; c-Kit (d557-558), [ATP] 10 µM, compound 10 uM
  % Enzyme Activity (relative to DMSO controls): 63.45% and 62.37%
[8]
  pActivity, HSP90AB1: 8.09
[9]; [18]
  % inhibition at 10 uM: ABL1: 93 ± 1%
[9]; ABL1, single replicate curves
  HILLSLOPE: -3.07 and -2.62 and -3.14
[9]; [15]
  IC50: 3570 nM and 3390 nM and 3220 nM
[9]; [16]
  IC50: 3390 nM
[9]; read-out: % inhibition at 10 uM: ABL1, 10 μM, Fig 6C median ± standard deviation (n = 2)
  inhibition at 10 µM: > 85%
[10]; [17]
  IC50: > 10000 nM
[10]; read-out: % inhibition at 10 uM: DDR1, 10 μM, Fig 6C median ± standard deviation (n = 2)
  inhibition at 10 µM: 15 ± 1%
